Results reported in ChEMBL document CHEMBL4483862, “Open-source discovery of chemical leads for next-generation chemoprotective antimalarials” (2018).

System: Plasmodium berghei
Assay: Luciferase/luciferin-expressing antifolate-resistant parasites were used to infect a culture of HepG2 cells that were pre-incubated with compounds. Infected hepatocytes emit light due to the luciferase reaction. Assay results are presented as the percent inhibition of light emission compared to control. […]
Assay type: functional
Details: sporozoite; for IC90: read-out: LUCIFERASE INFECTION ASSAY - IC90

| Compound | IC90 | further results |
| --- | --- | --- |
| COc1cc(C(=O)c2c(-c3ccccc3)cc3ccccn23)cc(OC)c1OC | 0.409 µM | IC50 (HEPG2TOX_HILL_SLOPE 0.582, HEPG2TOX_R_SQUARED 0.857, PBLUC_HILL_SLOPE 12.9, PBLUC_R_SQUARED 0.72, read-out: LUCIFERASE INFECTION ASSAY - IC50): 0.344 µM |
| O=C1/C(=C2/NC=C(c3ccc(Cl)cc3)O2)Sc2ccccc21 | > 10 µM | IC50 (HEPG2TOX_HILL_SLOPE 0.513, HEPG2TOX_R_SQUARED 0.665, PBLUC_HILL_SLOPE 15.6, PBLUC_R_SQUARED 0.39, read-out: LUCIFERASE INFECTION ASSAY - IC50): 9.58 µM |
| CCOC(=O)c1cnc(SC(C)C(=O)Nc2nc(-c3ccccc3)cs2)nc1N (configuration not stated) | > 10 µM | IC50 (HEPG2TOX_HILL_SLOPE 0.514, HEPG2TOX_R_SQUARED 0.73, PBLUC_HILL_SLOPE 0.707, PBLUC_R_SQUARED 0.324, read-out: LUCIFERASE INFECTION ASSAY - IC50): 4.44 µM |
| Cn1ncc2c(NCc3ccc(-c4ccc(Cl)cc4)o3)ncnc21 | 0.56 µM | IC50 (HEPG2TOX_HILL_SLOPE 0.521, HEPG2TOX_R_SQUARED 0.423, PBLUC_HILL_SLOPE 3.64, PBLUC_R_SQUARED 0.888, read-out: LUCIFERASE INFECTION ASSAY - IC50): 0.306 µM |
| O=C(O)Cc1c(-c2ccc3c(c2)OCCO3)nc2ccc([N+](=O)[O-])cc2c1-c1ccccc1 | 8.54 µM | IC50 (HEPG2TOX_HILL_SLOPE 0.567, HEPG2TOX_R_SQUARED 0.724, PBLUC_HILL_SLOPE 1.12, 2.95, PBLUC_R_SQUARED 0.872, 0.627, read-out: LUCIFERASE INFECTION ASSAY - IC50): 3.34 µM |
| Cc1nn(-c2ccccc2)c(Oc2ccccc2)c1/C=C1\C(=O)Nc2ccccc21 | 1.95 µM | IC50 (HEPG2TOX_HILL_SLOPE 0.509, HEPG2TOX_R_SQUARED 0.727, PBLUC_HILL_SLOPE 1.23, PBLUC_R_SQUARED 0.54, read-out: LUCIFERASE INFECTION ASSAY - IC50): 0.328 µM |
| C=C(C)C[n+]1cn(C)c(-c2ccccc2)c1-c1ccccc1 | > 10 µM | IC50 (HEPG2TOX_HILL_SLOPE 0.508, HEPG2TOX_R_SQUARED 0.671, PBLUC_HILL_SLOPE 5.71, PBLUC_R_SQUARED 0.631, read-out: LUCIFERASE INFECTION ASSAY - IC50): 7.55 µM |
| O=C(/C=C/c1ccc([N+](=O)[O-])cc1)NCC(=O)N1CCN(S(=O)(=O)c2ccc(Cl)cc2)CC1 | 0.04 µM | IC50 (HEPG2TOX_HILL_SLOPE 0.532, HEPG2TOX_R_SQUARED 0.824, PBLUC_HILL_SLOPE 10.3, PBLUC_R_SQUARED 0.421, read-out: LUCIFERASE INFECTION ASSAY - IC50): 0.0324 µM |
| C=C(C)[C@@H]1CC=C(CN2CCC3(CC2)C(=O)N(CCCc2cccnc2)C(=O)N3CC)CC1 | 6.89 µM | IC50 (HEPG2TOX_HILL_SLOPE 0.525, HEPG2TOX_R_SQUARED 0.846, PBLUC_HILL_SLOPE 1.68, PBLUC_R_SQUARED 0.809, read-out: LUCIFERASE INFECTION ASSAY - IC50): 1.86 µM |
| COc1ccc(O)c(C(=O)c2cnc3cc4c(cc3c2)OCCO4)c1 | 1.21 µM | IC50 (HEPG2TOX_HILL_SLOPE 0.562, HEPG2TOX_R_SQUARED 0.791, PBLUC_HILL_SLOPE 0.753, PBLUC_R_SQUARED 0.781, read-out: LUCIFERASE INFECTION ASSAY - IC50): 0.0655 µM |
| CN1c2ccccc2C(C)(C)C12C=Cc1c(c(Br)cc3oc4c(c13)CCCC4)O2 (configuration not stated) | > 10 µM | IC50 (HEPG2TOX_HILL_SLOPE 0.555, HEPG2TOX_R_SQUARED 0.409, PBLUC_HILL_SLOPE 0.699, PBLUC_R_SQUARED 0.384, read-out: LUCIFERASE INFECTION ASSAY - IC50): 4.21 µM |
| O=C(Nc1cccc2c[nH]nc12)c1ccc([N+](=O)[O-])s1 | 7.56 µM | IC50 (HEPG2TOX_HILL_SLOPE 0.563, HEPG2TOX_R_SQUARED 0.653, PBLUC_HILL_SLOPE 2.36, PBLUC_R_SQUARED 0.303, read-out: LUCIFERASE INFECTION ASSAY - IC50): 2.98 µM |
| CCn1nnc2cc(C(=O)NC3CCc4nc(-c5ccccc5)ncc4C3)ccc21 (configuration not stated) | > 10 µM | IC50 (HEPG2TOX_HILL_SLOPE 0.553, HEPG2TOX_R_SQUARED 0.534, PBLUC_HILL_SLOPE 1.69, PBLUC_R_SQUARED 0.311, read-out: LUCIFERASE INFECTION ASSAY - IC50): 4.68 µM |
| Cc1ccc(S(=O)(=O)Oc2c(C(C)C)cc(Nc3ccccc3)cc2C(C)C)cc1 | > 10 µM | IC50 (HEPG2TOX_HILL_SLOPE 0.494, HEPG2TOX_R_SQUARED 0.437, PBLUC_HILL_SLOPE 0.599, PBLUC_R_SQUARED 0.52, read-out: LUCIFERASE INFECTION ASSAY - IC50): 2.17 µM |
| COc1ccc(-c2ccc3ncc(-c4cccc(C(=O)NCCN(C)C)c4)n3n2)cc1OC | 0.309 µM | IC50 (HEPG2TOX_HILL_SLOPE 0.532, HEPG2TOX_R_SQUARED 0.94, PBLUC_HILL_SLOPE 3.74, PBLUC_R_SQUARED 0.793, read-out: LUCIFERASE INFECTION ASSAY - IC50): 0.172 µM |
| CC(C)c1ccc(NC(=O)c2csc(C(O)c3ccccc3)n2)cc1 (configuration not stated) | > 10 µM | IC50 (HEPG2TOX_HILL_SLOPE 0.582, HEPG2TOX_R_SQUARED 0.837, PBLUC_HILL_SLOPE 1.67, PBLUC_R_SQUARED 0.415, read-out: LUCIFERASE INFECTION ASSAY - IC50): 7.47 µM |

| Compound | IC90 | further results |
| --- | --- | --- |
| C(=N\c1ccc2ccccc2c1)/Nc1ccc2ccccc2c1 | > 11.1 µM | IC50 (HEPG2TOX_HILL_SLOPE 0.512, HEPG2TOX_R_SQUARED 0.0455, PBLUC_HILL_SLOPE 17.2, PBLUC_R_SQUARED 0.33, read-out: LUCIFERASE INFECTION ASSAY - IC50): 10.8 µM |
| CO/N=C1\CCCc2c(C(=O)N/N=C/c3ccc(Cl)cc3)sc(SC)c21 | 1.51 µM | IC50 (HEPG2TOX_HILL_SLOPE 0.585, HEPG2TOX_R_SQUARED 0.788, PBLUC_HILL_SLOPE 2.34, PBLUC_R_SQUARED 0.687, read-out: LUCIFERASE INFECTION ASSAY - IC50): 0.59 µM |
| CC(C)(C)c1cnc(CSc2nc3ccc(Cl)cc3[nH]2)o1 | > 10 µM | IC50 (HEPG2TOX_HILL_SLOPE 0.519, HEPG2TOX_R_SQUARED 0.541, PBLUC_HILL_SLOPE 2.57, PBLUC_R_SQUARED 0.344, read-out: LUCIFERASE INFECTION ASSAY - IC50): 5.12 µM |
| Cc1ccc(S(=O)(=O)Nc2ccccc2-c2nnc(-c3ccc(C(C)(C)C)cc3)o2)cc1 | > 7.37 µM | IC50 (HEPG2TOX_HILL_SLOPE 0.544, HEPG2TOX_R_SQUARED 0.0439, read-out: LUCIFERASE INFECTION ASSAY - IC50): > 7.37 µM |
| Cc1cccc(-c2cn3c(-c4ccc(N(C)C)cc4)cnc3cn2)c1C | 1.28 µM | IC50 (HEPG2TOX_HILL_SLOPE 0.565, HEPG2TOX_R_SQUARED 0.75, PBLUC_HILL_SLOPE 0.899, PBLUC_R_SQUARED 0.883, read-out: LUCIFERASE INFECTION ASSAY - IC50): 0.111 µM |
| CC1(C)CC(=O)C/C(=N\Nc2nc(C(Cl)(Cl)Cl)nc3ccccc23)C1 | > 10 µM | IC50 (HEPG2TOX_HILL_SLOPE 0.517, HEPG2TOX_R_SQUARED 0.271, PBLUC_HILL_SLOPE 3.75, PBLUC_R_SQUARED 0.163, read-out: LUCIFERASE INFECTION ASSAY - IC50): 9.3 µM |
| Oc1ccc(C2=CCN(c3ncnc4ccccc34)CC2)cc1 | 2.89 µM | IC50 (HEPG2TOX_HILL_SLOPE 0.526, HEPG2TOX_R_SQUARED 0.691, PBLUC_HILL_SLOPE 1.57, PBLUC_R_SQUARED 0.66, read-out: LUCIFERASE INFECTION ASSAY - IC50): 0.716 µM |
| COc1cc(NC(=O)COC(=O)c2c3c(nc4ccccc24)CCC(C(C)(C)C)C3)c(C)cc1[N+](=O)[O-] (configuration not stated) | > 10 µM | IC50 (HEPG2TOX_HILL_SLOPE 0.52, HEPG2TOX_R_SQUARED 0.623, PBLUC_HILL_SLOPE 14.9, PBLUC_R_SQUARED 0.282, read-out: LUCIFERASE INFECTION ASSAY - IC50): > 10 µM |
| CN(CC(=O)Nc1ccccc1N1CCCC1)Cc1ccc2ccccc2c1 | 0.646 µM | IC50 (HEPG2TOX_HILL_SLOPE 0.547, HEPG2TOX_R_SQUARED 0.872, PBLUC_HILL_SLOPE 2.05, PBLUC_R_SQUARED 0.897, read-out: LUCIFERASE INFECTION ASSAY - IC50): 0.221 µM |
| COc1ccc(COC(=O)c2cc(C)nc3ccccc23)cc1F | 0.157 µM | IC50 (HEPG2TOX_HILL_SLOPE 0.536, HEPG2TOX_R_SQUARED 0.687, PBLUC_HILL_SLOPE 9.99, PBLUC_R_SQUARED 0.341, read-out: LUCIFERASE INFECTION ASSAY - IC50): 0.126 µM |
| O=C1C2=C(Nc3[nH]c(=O)[nH]c(=O)c3C2c2cccs2)c2ccccc21 (configuration not stated) | > 10 µM | IC50 (HEPG2TOX_HILL_SLOPE 0.543, HEPG2TOX_R_SQUARED 0.515, read-out: LUCIFERASE INFECTION ASSAY - IC50): > 10 µM |
| CCCn1c(C)cc(C(=O)CN(C)S(=O)(=O)c2ccc(F)cc2)c1C | > 10 µM | IC50 (HEPG2TOX_HILL_SLOPE 0.529, HEPG2TOX_R_SQUARED 0.126, read-out: LUCIFERASE INFECTION ASSAY - IC50): > 10 µM |
| Cc1cc(C)n(-c2nc(-c3ccccc3)cc(N(C)CCO)n2)n1 | 3.45 µM | IC50 (HEPG2TOX_HILL_SLOPE 0.522, HEPG2TOX_R_SQUARED 0.395, PBLUC_HILL_SLOPE 14.2, PBLUC_R_SQUARED 0.716, read-out: LUCIFERASE INFECTION ASSAY - IC50): 2.96 µM |
| CC(=O)Nc1ccc(NC(=O)c2cc(C)n(C3CCCCC3)c2C)cc1 | > 10 µM | IC50 (HEPG2TOX_HILL_SLOPE 0.564, HEPG2TOX_R_SQUARED 0.119, read-out: LUCIFERASE INFECTION ASSAY - IC50): > 10 µM |
| FC(F)(F)c1nc(NCCNc2ccccn2)c2ccccc2n1 | 5.48 µM | IC50 (HEPG2TOX_HILL_SLOPE 0.531, HEPG2TOX_R_SQUARED 0.801, PBLUC_HILL_SLOPE 0.677, PBLUC_R_SQUARED 0.347, read-out: LUCIFERASE INFECTION ASSAY - IC50): 0.214 µM |
